The source of these data is BindingDB's records for doi:10.1016/j.bmcl.2018.02.046 (AstraZeneca, 2018).

In this assay the target is Proprotein convertase subtilisin/kexin type 9 (Homo sapiens, UniProt Q8NBP7). The assay is described as follows: Inhibition of PCSK9 binding to LDLR in human HuH7 cells after 5 hrs by On-cell Western assay.
Proprotein convertase subtilisin/kexin type 9, sequence (Q8NBP7 31-152 limits assumed): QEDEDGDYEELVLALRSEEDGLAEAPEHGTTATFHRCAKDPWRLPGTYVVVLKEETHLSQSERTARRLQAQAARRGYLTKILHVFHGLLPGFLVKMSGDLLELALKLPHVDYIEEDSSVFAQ
Proprotein convertase subtilisin/kexin type 9, sequence (Q8NBP7 153-692 limits assumed): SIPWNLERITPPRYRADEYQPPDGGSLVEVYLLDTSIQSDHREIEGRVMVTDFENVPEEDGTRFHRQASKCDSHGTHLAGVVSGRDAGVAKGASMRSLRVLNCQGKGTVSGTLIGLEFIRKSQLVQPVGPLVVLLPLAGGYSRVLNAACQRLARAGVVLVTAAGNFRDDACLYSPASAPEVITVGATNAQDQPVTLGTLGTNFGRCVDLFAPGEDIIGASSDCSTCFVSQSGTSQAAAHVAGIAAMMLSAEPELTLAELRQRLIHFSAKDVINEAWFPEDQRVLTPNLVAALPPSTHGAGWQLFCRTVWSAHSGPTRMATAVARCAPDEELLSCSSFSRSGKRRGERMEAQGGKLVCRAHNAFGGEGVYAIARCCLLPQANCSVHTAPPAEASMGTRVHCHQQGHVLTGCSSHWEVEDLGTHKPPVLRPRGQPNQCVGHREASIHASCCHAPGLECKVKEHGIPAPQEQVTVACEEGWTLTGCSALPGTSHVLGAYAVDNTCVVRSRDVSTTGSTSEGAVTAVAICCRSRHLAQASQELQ

Consider H-LILPKHSDAD-OH, for which the IC50 (usually the point on the concentration scale where inhibition reaches its midpoint) came to 1600 nM.
